Laboratory results: article PMC6522510 (Nature Communications, 2019)
Read-outs that look alike come from different tables or passages of the source.

Columns and labels:
Parameters in all cases: species or system AML cell lines (8); Primary HTS, single concentration about 10 uM, Cell Titer Glo viability; log10 luminescence, per cent inhibition relative to cycloheximide control
Details in all cases: 72 h, relative to cycloheximide control, log10 luminescence, inhibitor
[1] = system: CHRF288-11
[2] = system: CMK
[3] = system: CMS
[4] = system: M07e
[5] = system: ML-2
[6] = system: MOLM-13
[7] = system: MV4-11
[8] = system: U937

SMILES	CHRF288-11 %inh [1]	CMK %inh [2]	CMS %inh [3]	M07e %inh [4]	ML-2 %inh [5]	MOLM-13 %inh [6]	MV4-11 %inh [7]	U937 %inh [8]	CHRF288-11 %inh ([1]; CHRF288-11 %inh, 10 µM)	CMK %inh ([2]; CMK %inh, 10 µM)	CMS %inh ([3]; CMS %inh, 10 µM)	M07e %inh ([4]; M07e %inh, 10 µM)	ML-2 %inh ([5]; ML-2 %inh, 10 µM)	MOLM-13 %inh ([6]; MOLM-13 %inh, 10 µM)	MV4-11 %inh ([7]; MV4-11 %inh, 10 µM)	U937 %inh ([8]; U937 %inh, 10 µM)
O=C(Nc1ccc(Oc2ccc3[nH]c(NC(=O)c4ccccc4)nc3c2)cc1)Nc1cc(C(F)(F)F)ccc1F [SJ000573149-1, T261/94/4]	9.652%	59.46%	32.92%	22.27%	33.71%	108.7%	91.44%	43.21%	–	–	–	–	–	–	–	–
CS(=O)(=O)CCNCc1ccc(-c2ccc3ncnc(Nc4ccc(OCc5cccc(F)c5)c(C(F)(F)F)c4)c3c2)o1 [SJ000573152-1, U14859/108/1]	2.26%	-0.9918%	-1.451%	0.4672%	2.813%	2.035%	3.001%	2.673%	–	–	–	–	–	–	–	–
O=C(Nc1n[nH]c2nc(-c3ccc(O)cc3)c(Br)cc12)C1CC1 [SJ000573153-1, AN100368-079A1]	61.88%	121.4%	105%	20.28%	13.84%	85.66%	59.64%	31.9%	–	–	–	–	–	–	–	–
c1ccc(Oc2ccc(Nc3ncc(-c4ccccc4)o3)cc2)cc1 [SJ000573154-1, U15924/95/2]	-6.587%	-2.277%	-3.51%	-0.6223%	0.5718%	-2.365%	-2.884%	3.231%	–	–	–	–	–	–	–	–
COc1cccc(-n2ncc3c(N/N=C/c4ccc(C(=O)NCCN(C)C)cc4)ncnc32)c1 [SJ000573155-1, U16945/190/1]	128.6%	38.62%	51.58%	23.03%	12.67%	33.75%	45.9%	26.01%	–	–	–	–	–	–	–	–
CCn1c(-c2nonc2N)nc2ccccc21 [SJ000573156-1, U17602/18/1 | JT100597-005A1]	-4.898%	-4.724%	-3.86%	0.4432%	2.051%	-2.502%	-3.157%	-1.491%	–	–	–	–	–	–	–	–
Cc1cc(-c2ccco2)cc(C)c1/C=C/c1cncc(-c2nn[nH]n2)c1 [SJ000573157-1, T209/165/1]	6.913%	-3.964%	1.933%	4.709%	0.8109%	-1.72%	-0.5767%	-2.587%	–	–	–	–	–	–	–	–
COC(=O)Nc1nc2ccc(Oc3ccc(NC(=O)Nc4cccc(Cl)c4)cc3)cc2[nH]1 [SJ000573158-1, T278/6/1]	9.893%	60.27%	11.78%	46.36%	61.89%	98.07%	87.76%	93.62%	–	–	–	–	–	–	–	–
ON=C1CCc2cc(-c3nc(C4CCNCC4)[nH]c3-c3ccncc3)ccc21 [SJ000573159-1, DD48690-004A1]	-1.561%	-2.711%	1.757%	1.161%	3.813%	2.332%	-4.441%	-1.918%	–	–	–	–	–	–	–	–
O=C(O[C@H]1CN[C@H](C#Cc2cc3ncnc(Nc4ccc5c(ccn5Cc5cc(F)ccc5F)c4)c3s2)C1)N1CCOCC1 [SJ000573160-1, U20298/150/2]	10.62%	5.697%	12.05%	-0.7728%	4.843%	10.52%	8.297%	14.13%	–	–	–	–	–	–	–	–
Nc1nonc1-c1nc2cnccc2n1C1CC1 [SJ000573161-1, SD100950-085A1]	4.079%	26.4%	4.949%	-4.33%	6.372%	2.819%	17.34%	17.71%	–	–	–	–	–	–	–	–
COC(=O)Nc1nc2cc(Oc3ccc(NC(=O)Nc4cccc(C(=O)O)c4)cc3)ccc2[nH]1 [SJ000573163-1, T261/87/3]	17.31%	83.28%	3.532%	13.83%	30.21%	34.2%	11.57%	31.9%	–	–	–	–	–	–	–	–
NC(=O)c1cccc(Nc2nccc(Nc3cccc(F)c3)n2)c1 [SJ000573164-1, R5869/121/5]	8.575%	19.08%	5.376%	12.07%	3.111%	57.29%	21.87%	1.036%	–	–	–	–	–	–	–	–
COC(=O)Nc1nc2cc(Oc3ccc(NC(=O)Nc4ccccc4)cc3)ccc2[nH]1 [SJ000573165-1, T261/64/2]	29.47%	109.7%	99.63%	91.37%	57.46%	87.75%	69.12%	81.37%	–	–	–	–	–	–	–	–
Cc1nnc(-c2ccc(C)c(-c3ccc(C(=O)NCc4ccc(Cl)cc4)cc3)c2)o1 [SJ000573166-1, R5419/62/6]	-0.1255%	2.525%	4.153%	6.199%	2.787%	2.185%	-0.3161%	3.066%	–	–	–	–	–	–	–	–
NC(=O)c1sc(-n2cnc3ccc(C(F)(F)F)cc32)cc1OCc1ccccc1Br [SJ000573167-1, U19121/196/1]	1.336%	-1.461%	15.36%	5.031%	22.34%	2.5%	1.988%	43.5%	–	–	–	–	–	–	–	–
Nc1nccc(-c2c(-c3ccc(F)cc3)ncn2C2CCNCC2)n1 [SJ000573168-1, JB-19127-269D | LD19161-244A1]	–	–	–	–	–	–	–	–	34.51%	44.14%	7.951%	19.95%	22.46%	64.89%	77.89%	27.96%
Nc1nccc(-c2c(-c3ccc(F)cc3)ncn2C2CCNCC2)n1 [SJ000573168-2, JB-19127-269D | LD19161-244A1]	–	–	–	16.87%	–	–	–	–	101.4%	34.82%	15.45%	–	28.94%	78.79%	54.74%	15.47%
CC1=C(C(=O)Nc2ccc3[nH]nc(C)c3c2)C(c2ccc(C(F)(F)F)cc2)CC(=O)N1 (centres unmarked) [SJ000573169-1, SD204573-190A1]	46.87%	106.1%	35.88%	28.71%	13.81%	15.8%	29.81%	19.8%	–	–	–	–	–	–	–	–
